Experimental findings from patent US9688672B2, “3-pyrimidin-4-yl-oxazolidin-2-ones as inhibitors of mutant IDH” (NOVARTIS AG, priority 2013, dated 2017) are described below.

Data set [1] in a line: Metabolic stability in liver microsomes, Method II. Type of data set: in vitro ADME. The method, then:
Determination of Metabolic Stability in Liver Microsomes—Method II
The in vitro metabolic stability assay was performed in a 96-deep-well plate with incubation at 37° C. 10 mM DMSO stock solution of the test compound was diluted 1:20 in acetonitrile, followed by an additional 1:10 dilution in 100 mM potassium phosphate buffer (KPi) to yield a final reaction concentration of 1 μM. Immediately prior to the start of the experiment, respective animal or human liver microsomes (male Sprague-dawley rat, male CD-1 mouse, or pooled human liver microsomes) were diluted in 100 mM KPi to 1.25 mg/mL liver microsomal protein. […]
At 0, 5, 15 and 30 minute time points in the reaction, reaction aliquots (75 μL) were removed and the reactions were terminated by the addition of 50:50 acetonitrile/methanol solution (75 μL) containing a mass spectrometry internal standard (0.5 μM glyburide). […] The supernatants solution were analyzed by UPLC/MS/MS for quantitation of parent remaining compound under multiple reactions monitoring mode (MRM) in positive mode. […]
The injection volume was 5 μL. Compounds were detected using Analyst 1.5.1 software which collects intensity data for all fragments related to the molecular weight of the test compound. […]
The intrinsic clearance value, CLint (expressed as μL/min/mg microsomal protein) calculation is shown below: […]

Data set [2] can be described thus: Metabolic stability in liver microsomes, Method II. It is filed as in vitro ADME. The source holds these as a separate data set.
Procedure: The in vitro metabolic stability assay was performed in a 96-deep-well plate with incubation at 37° C. 10 mM DMSO stock solution of the test compound was diluted 1:20 in acetonitrile, followed by an additional 1:10 dilution in 100 mM potassium phosphate buffer (KPi) to yield a final reaction concentration of 1 μM. […] 290 μL of cofactor solution (1.7 mM NADPH, 1.7 mM UDPGA, 3.4 mM MgCl in 100 mM KPi) was added to 200 μL of microsomal protein for a final volume of 490 μL. The reaction was initiated by adding 10 μL of the 50 μM test solution to 490 μL of microsomal protein for a final volume 500 μL enzyme-compound mixture.
At 0, 5, 15 and 30 minute time points in the reaction, reaction aliquots (75 μL) were removed and the reactions were terminated by the addition of 50:50 acetonitrile/methanol solution (75 μL) containing a mass spectrometry internal standard (0.5 μM glyburide). The samples were centrifuged at 4000 RPM for 10 minutes. […] The supernatants solution were analyzed by UPLC/MS/MS for quantitation of parent remaining compound under multiple reactions monitoring mode (MRM) in positive mode. […]

Consider `C[C@H](Nc1ncc(F)c(N2C(=O)OC[C@@H]2[C@H](C)F)n1)c1cn(-c2ccc(Cl)cc2F)cn1` [Example 477, (R)-3-(2-(((S)-1-(1-(4-chloro-2-fluorophenyl)-1H-imidazol-4-yl)ethyl)amino)-5-fluoropyrimidin-4-yl)-4-((S)-1-fluoroethyl)oxazolidin-2-one], for which the “Human microsomal stability CLint” value in data set [1] was 30.44 µL/min/mg. Moreover, the “Mouse microsomal stability CLint” value in data set [2] turned out to be 167.04 µL/min/mg.
